Assay results reported in patent publication US6709851B1, “Stabilization of helicobacter urease” (OraVax-Merieux Co., priority 1997, dated 2004).
Entries after “also recorded” stand apart in the source; their conditions may differ. Read-outs that look alike come from different tables or passages of the source.

Key:
[1] = molecular target: T1, recombinant H. pylori apourease (Helicobacter pylori, UniProt P69996); type: biochemical; settings: for activation of modified urease after removal of excess modifying agent: excess agent removed by diafiltration; for activation with Ni++ and bicarbonate of urease modified by the compound: urease modified before activation
T1 sequence (P69996 whole entry, looked up): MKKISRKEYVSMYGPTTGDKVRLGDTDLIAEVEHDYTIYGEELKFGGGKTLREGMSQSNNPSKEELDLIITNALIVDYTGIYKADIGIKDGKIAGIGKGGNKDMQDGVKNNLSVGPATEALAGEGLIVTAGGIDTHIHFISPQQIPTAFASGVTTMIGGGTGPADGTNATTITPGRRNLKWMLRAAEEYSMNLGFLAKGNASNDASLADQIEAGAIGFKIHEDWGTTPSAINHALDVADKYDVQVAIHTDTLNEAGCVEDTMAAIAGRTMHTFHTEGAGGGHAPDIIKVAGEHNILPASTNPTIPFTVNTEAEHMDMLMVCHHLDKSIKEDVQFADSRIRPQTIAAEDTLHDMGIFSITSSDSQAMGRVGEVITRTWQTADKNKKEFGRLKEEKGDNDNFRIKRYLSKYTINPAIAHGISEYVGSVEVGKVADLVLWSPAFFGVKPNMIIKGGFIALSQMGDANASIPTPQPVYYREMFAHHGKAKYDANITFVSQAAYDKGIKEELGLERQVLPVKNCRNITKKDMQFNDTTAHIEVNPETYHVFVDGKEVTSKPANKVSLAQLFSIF

[2] = molecular target: T1, recombinant H. pylori apourease; type: biochemical; settings: for effect of imidazole on activation by Ni++ and bicarbonate: imidazole 2.5-25 mM, 200 mM bicarbonate, 200 μM Ni++
[3] = Molecular stability and aggregation of urease by analytical size exclusion HPLC; settings: for effect of blocking free sulfhydryl groups on molecular association of urease: treated urease in solution or dialyzed in PBS; for effect of additive on molecular association of urease: dialysis against PBS and storage at 4° C.
[4] = molecular target: in vitro activated urease (Helicobacter pylori, UniProt P69996); type: biochemical
Sequence of in vitro activated urease (P69996 whole entry, looked up): as above

[5] = compound added along with activation buffer

[Co+2] [Co^++]
activation of recombinant urease by metal ion with bicarbonate [1]: do not cause urease activation | effect of other metal ion on activation of recombinant urease by Ni++ [1]: inhibit activation

[Cu+2] [Cu^++]
effect of other metal ion on Ni++ activation by native PAGE and silver staining [2]: inhibitory effect | effect of other metal ion on activation of recombinant urease by Ni++ [1]: inhibited activation; also recorded: antagonistic effects

O=[N+]([O-])c1ccc(F)c([N+](=O)[O-])c1 [DNFB, dinitrofluorobenzene]
effect of DNFB treatment on molecular stability ([3]; dialyzed against phosphate buffer overnight): stabilizes the hexameric form of urease | activation with compound included in the activation mixture [1]: activation is blocked | in vitro activation after DNFB treatment for 5, 15, 30, and 60 minutes [1]: blocks in vitro activation | pH dependence of DNFB blocking of in vitro activation [1]: more effective at alkaline pH (pH>7.5) than at neutral or acidic pH; also recorded: pH-dependent | in vitro activation of apourease modified with DNFB ([1]; pH 8): blocked in vitro activation; also recorded: not activated | effect of DNFB on pre-activated urease activity [4]: inactivates pre-activated urease in a pH-dependent manner

O=C(O)c1cc(SSc2ccc([N+](=O)[O-])c(C(=O)O)c2)ccc1[N+](=O)[O-] [DTNB, 5-5′-dithio-bis-2-nitrobenzoic acid]
effect of blocking free sulfhydryl groups on molecular association of urease [3]: stabilizing effect on urease in solution; also recorded: reduce the molecular associations; also recorded: stabilized the hexamer form of urease and prevented molecular association | activation with compound included in the activation mixture [1, 5]: blocking of activation | activation of modified urease after removal of excess modifying agent [1]: not activated | activation with Ni++ and bicarbonate of urease modified by the compound [1]: not activated

O=C(O)CN(CCN(CC(=O)O)CC(=O)O)CC(=O)O [EDTA]
effect of additive on molecular association of urease [3]: did not have any significant effect

[Fe+2] [Fe^++]
effect of other metal ion on Ni++ activation by native PAGE and silver staining [2]: inhibitory effect | effect of other metal ion on activation of recombinant urease by Ni++ [1]: inhibited activation; also recorded: antagonistic effects

[Mg+2] [Mg^++]
effect of other metal ion on activation of recombinant urease by Ni++ [1]: no detectable effect

[Mn+2] [Mn^++]
activation of recombinant urease by metal ion with bicarbonate [1]: resulted in activation of urease | effect of other metal ion on activation of recombinant urease by Ni++ [1]: enhanced the activation; also recorded: synergistic effect

CCN1C(=O)C=CC1=O [NEM, N-ethyl maleimide]
activation by bicarbonate and nickel of NEM-modified apourease ([1]; 9 mM NEM, room temperature, 60 minutes, 20 mM Hepes pH 7.5): not activated

[Ni+2] [Ni^++]
activation of recombinant urease by metal ion with bicarbonate [1]: resulted in activation of urease

OC[C@H]1O[C@@](CO)(O[C@H]2O[C@H](CO)[C@@H](O)[C@H](O)[C@H]2O)[C@@H](O)[C@@H]1O [Sucrose]
effect of additive on molecular association of urease [3]: significantly reduced the extent of aggregation

c1c[nH]cn1 [imidazole]
effect of imidazole on activation by Ni++ and bicarbonate [2]: inhibits urease activation | effect of imidazole on activation by Ni++ and bicarbonate ([2]; listed as Imidazole): inhibit the activation of recombinant urease in a concentration-dependent manner

NC(=O)CI [iodoacetamide]
effect of blocking free sulfhydryl groups on molecular association of urease [3]: stabilizing effect on urease in solution; also recorded: reduce the molecular associations; also recorded: stabilized the hexameric form of urease and prevented molecular association | activation with compound included in the activation mixture [1, 5]: blocking of activation | activation of modified urease after removal of excess modifying agent [1]: not activated | activation with Ni++ and bicarbonate of urease modified by the compound [1]: not activated; also recorded: inhibits activation

OCCS [β-mercaptoethanol]
effect of additive on molecular association of urease [3]: stabilized urease in the hexameric form; also recorded: prevented the molecular associations
